# How the values were obtained:
# [1] = tested on: SW620 (colorectal adenocarcinoma, metastatic); assay: Proliferation assay (MTT, 72 h) on SW620; format: cell-based; conditions: Homo sapiens, SW-620, SW620, 72 h
# Method: (§1) Human cell lines SW620 (colorectal adenocarcinoma, metastatic), MCF-7 (human breast adenocarcinoma), CFPAC-1 (pancreatic adenocarcinoma), HeLa (cervical carcinoma), and HFF-1 (human foreskin fibroblasts) were obtained from the American Type Culture Collection (ATCC). Cells were cultured in a humidified atmosphere at 37 °C with 5% CO2. As a growth medium, Dulbecco’s modified Eagle medium (DMEM) was used with the addition of foetal bovine serum (10%), L-glutamine (2 mM), and antibiotics: streptomycin ([…]) and penicillin (100 U/ml).
# (§2) Cells were seeded onto 96-well microtiter plates at a seeding density of 3000 cells/well for carcinoma cell lines, and 5000 cells/well for normal human fibroblasts. The next day, cells were treated with test agents at five different concentrations (0.01–100 µM) and further incubated for 72 h. […] 5-Fluorouracil (5-FU, 0.384 M fluorouracilum, Pliva 500 mg/10 ml) dissolved in physiological solution was used as a positive control. Following 72 h incubation, the MTT assay was performed and measured absorbances were transformed into a percentage of cell growth as described previously. Results were obtained from three independent experiments. IC50 values were calculated using linear regression analysis (FORECAST option taking into account the concentration range of two experimental points above and below IC50).
# [2] = tested on: CFPAC-1 (pancreatic adenocarcinoma); assay: Proliferation assay (MTT, 72 h) on CFPAC-1; format: cell-based; conditions: Homo sapiens, CFPAC-1, 72 h
# Method: as §1, §2
# [3] = tested on: MCF-7 (human breast adenocarcinoma); assay: Proliferation assay (MTT, 72 h) on MCF-7; format: cell-based; conditions: MCF7, MCF-7, 72 h
# Method: as §1, §2
# [4] = tested on: HeLa (cervical carcinoma); assay: Proliferation assay (MTT, 72 h) on HeLa; format: cell-based; conditions: Homo sapiens
# Method: as §1, §2
# [5] = tested on: HFF-1 (human foreskin fibroblasts); assay: Proliferation assay (MTT, 72 h) on normal fibroblasts HFF-1; format: cell-based; conditions: HFF-1 normal fibroblasts
# Method: as §1, §2
# [6] = tested on: Bloodstream form T. b. brucei (strain 221); assay: Antitrypanosomal screening (resazurin); format: cell-based; conditions: Trypanosoma brucei; for IC90: concentration that inhibited growth by 90%, mean ± SEM; for IC50: mean of triplicate ± SEM
# Method: Resazurin (20 μl at 0.125 mg ml^−1) was added after 48 h, the plates were incubated for a further 16 h, and then read in a Spectramax plate reader, and data analysed using GraphPad Prism. Each drug was tested in triplicate.
# [7] = tested on: L6 cells (a rat myoblast line); assay: L6 cell proliferation (cytotoxicity, resazurin); format: cell-based; conditions: for IC50: 144 h, rat myoblast L6, 6 days; for SI IC50 (L6/Tb): SI = [IC50 L6 cells]/[IC50 T. brucei]
# [8] = tested on: calf thymus ctDNA; assay: Fluorimetric titration with ctDNA; format: binding; conditions: for I/I0: fluorescence intensity of complex / starting intensity, ctDNA, pH 7.0; for LogKs: fluorescence titration with ctDNA, Scatchard, fixed n = 0.6, pH 7.0, sodium cacodylate I = 0.05 mol dm−3
# Method: The calf thymus ctDNA was additionally sonicated and filtered through a […]. Polynucleotide concentration was determined spectroscopically[50]^,[51] as the concentration of phosphates. Fluorescence spectra were recorded on a Varian Cary Eclipse spectrophotometer at 25 °C using appropriate 1 cm path quartz cuvettes. […] In fluorimetric experiments, an excitation wavelength of λexc ≥300 nm was used to avoid the inner filter effect caused due to increasing absorbance of the polynucleotide. Emissions were determined in the range λem = 350–650 nm. Values for Ks were obtained by processing titration data using the Scatchard equation[52].
# [9] = tested on: ctDNA; assay: CD titration of ctDNA; format: binding, calf
# Method: (§3) These solutions were used for measurements in an aqueous buffer (pH = 7, sodium cacodylate buffer, I = 0.05 mol dm^−3). Polynucleotides were purchased as noted: poly (dAdT)2 and calf thymus ctDNA (Sigma-Aldrich). Polynucleotides were dissolved in Na-cacodylate buffer, I = 0.05 mol dm^−3, pH = 7. The calf thymus ctDNA was additionally sonicated and filtered through a […]. Polynucleotide concentration was determined spectroscopically[50]^,[51] as the concentration of phosphates.
# CD spectra were recorded on a JASCO J815 spectrophotometer in 1 cm path quartz cuvettes. CD parameters: range = 500–220 nm, data pitch = 2, standard sensitivity, scanning speed = 200 nm/min, accumulation = 3–5. Titrations were performed at 25 °C and pH = 7 (I = 0.05 mol dm^−3, sodium cacodylate buffer). CD experiments were done by adding portions of the compound stock solution into the polynucleotide solution.
# [10] = tested on: ctDNA; assay: Thermal denaturation of ctDNA; format: binding, calf; conditions: r = [compound]/[polynucleotide] = 0.3, pH 7.0; error ±0.5 °C
# Method: as §3
# (§4) The UV/Vis spectra were recorded on a Varian Cary 100 Bio spectrophotometer using 1 cm path quartz cuvettes. Calibration experiments were performed at 25 °C and pH = 7 (I = 0.05 mol dm^−3, sodium cacodylate buffer). Absorption maxima and corresponding molar extinction coefficients (ε) of benzothiazole derivatives are given in Table S1 (Supplementary material). Thermal melting curves for DNA and their complexes with studied compounds were determined as previously described by following the absorption change at 260 nm as a function of temperature. The absorbance of the ligands was subtracted from every curve and the absorbance scale was normalised. Tm values are the midpoints of the transition curves determined from the maximum of the first derivative and checked graphically by the tangent method. The ΔTm values were calculated by subtracting Tm of the free nucleic acid from Tm of the complex. Every ΔTm value reported here was the average of at least two measurements. The error in ΔTm is ±0.5 °C.
# [11] = tested on: poly (dAdT)2; assay: Thermal denaturation of p(dAdT)2; format: binding; conditions: r = [compound]/[polynucleotide] = 0.3, pH 7.0; error ±0.5 °C
# Method: as §3, §4
SMILES,IC50 [1] [nM],IC50 [2] [µM],IC50 [3] [µM],IC50 [4] [nM],IC50 [5] [nM],IC90 [6] [nM],IC50 [6] [nM],IC50 [7] [nM],melting point [°C],I/I0 [8],LogKs [8],"induced CD (ICD) signal with ctDNA ([9]; CD titration, pH 7.0, λ > 300 nm)","binding mode to ctDNA ([9]; concluded from ICD, ΔTm and binding constants)",SI IC50 (L6/Tb) [7],ΔTm ctDNA [10] [°C],ΔTm p(dAdT)2 [11] [°C]
N=C(N)c1ccc2nc(-c3ccc(OCc4cn(-c5ccccc5)nn4)cc3)sc2c1 [10a],2890 ± 30,3.34 ± 0.19,3.39 ± 1.17,2890 ± 110,170 ± 40,1450 ± 110,1170 ± 100,< 2000,–,–,–,–,–,–,–,–
COc1ccc(-n2cc(COc3ccc(-c4nc5ccc(C(=N)N)cc5s4)cc3)nn2)cc1 [10c],3860 ± 290,3.45 ± 0.29,3.66 ± 1.49,2870 ± 1240,310 ± 80,1260 ± 20,1000 ± 70,< 2000,–,–,–,–,–,–,–,–
"COc1ccc(-n2cc(COc3nc4ccc(C5=NCCN5)cc4s3)nn2)cc1.CS(=O)(=O)O [11c, 6-(4,5-Dihydro-1H-imidazol-3-ium-2-yl)-2-{[1-(4-methoxyphenyl)-1H-1,2,3-triazol-4-yl]methoxy}benzothiazole methanesulfonate]",500 ± 160,2.06 ± 0.7,0.86 ± 0.97,2530 ± 10,240 ± 130,230 ± 50,190 ± 40,< 2000,253 to 257,–,–,–,–,–,–,–
"CS(=O)(=O)O.c1ccc(Cn2cc(COc3nc4ccc(C5=NCCN5)cc4s3)nn2)cc1 [11d, 6-(4,5-Dihydro-1H-imidazol-3-ium-2-yl)-2[(1-benzyl-1H-1,2,3-triazol-4-yl)methoxy]benzothiazole methanesulfonate]",1810 ± 550,1.21 ± 0.74,2.21 ± 1.17,1400 ± 750,180 ± 20,1300 ± 20,1090 ± 20,< 200,227 to 232,–,–,–,–,–,–,–
"CS(=O)(=O)O.Clc1ccc(-n2cc(COc3nc4ccc(C5=NCCCN5)cc4s3)nn2)cc1 [12b, 6-(3,4,5,6-Tetrahydropyrimidin-1-ium-2-yl)-2-[(1-(4-Chlorophenyl)-1H-1,2,3-triazol-4-yl]methoxy)benzothiazole methanesulfonate]",660 ± 210,3.55 ± 0.81,3.91 ± 1.19,2810 ± 580,240 ± 90,1190 ± 20,910 ± 80,2320 ± 180,220 to 224,0.31,7.0,positive induced CD spectra,minor groove binding mode,–,–,–
"COc1ccc(-n2cc(COc3nc4ccc(C5=NCCCN5)cc4s3)nn2)cc1.CS(=O)(=O)O [12c, 6-(3,4,5,6-Tetrahydropyrimidin-1-ium-2-yl)-2-{[1-(4-methoxyphenyl)-1H-1,2,3-triazol-4-yl]methoxy}benzothiazole methanesulfonate]",5220 ± 1240,3.31 ± 0.6,3.46 ± 0.45,2640 ± 460,460 ± 270,1180 ± 20,900 ± 50,2920 ± 260,259 to 264,–,–,–,–,3.2,–,–
"N=C(N)c1ccc2nc(-c3cn(-c4ccccc4)nn3)sc2c1 [13a, 6-Amidinium-2-(1-phenyl-1H-1,2,3-triazole-4-yl)benzothiazole methanesulfonate]",24200 ± 4310,26.6 ± 4.69,25.6 ± 3.15,7770 ± 50,2070 ± 130,2520 ± 340,2020 ± 100,7970 ± 960,–,–,–,–,–,3.9,–,–
"N=C(N)c1ccc2nc(-c3cn(-c4ccc(Cl)cc4)nn3)sc2c1 [13b, 6-Amidinium-2-[1-(4-chlorophenyl)-1H-1,2,3-triazole-4-yl]benzothiazole methanesulfonate]",3550 ± 850,3.17 ± 0.11,3.32 ± 0.01,2740 ± 210,850 ± 50,1020 ± 20,670 ± 70,2690 ± 420,–,–,–,–,–,4.0,–,–
"CS(=O)(=O)O.c1ccc(-n2cc(-c3nc4ccc(C5=NCCN5)cc4s3)nn2)cc1 [14a, 6-(4,5-Dihydro-1H-imidazol-3-ium-2-yl)-2-(1-phenyl-1H-1,2,3-triazole-4-yl)benzothiazole methanesulfonate]",250 ± 160,0.45 ± 0.19,0.52 ± 0.26,670 ± 60,120 ± 10,530 ± 30,400 ± 20,< 2000,–,0.54,5.6,–,–,–,0.7,2.6
"COc1ccc(-n2cc(-c3nc4ccc(C5=NCCN5)cc4s3)nn2)cc1.CS(=O)(=O)O [14c, 6-(4,5-Dihydro-1H-imidazol-3-ium-2-yl)-2-[1-(4-methoxyphenyl)-1H-1,2,3-triazole-4-yl]benzothiazole methanesulfonate]",360 ± 90,0.48 ± 0.03,0.54 ± 0.01,380 ± 100,180 ± 10,490 ± 10,310 ± 20,< 2000,> 300,–,–,–,–,–,0,4.5
"CS(=O)(=O)O.c1ccc(Cn2cc(-c3nc4ccc(C5=NCCN5)cc4s3)nn2)cc1 [14d, 6-(4,5-Dihydro-1H-imidazol-3-ium-2-yl)-2-(1-benzyl-1H-1,2,3-triazole-4-yl)benzothiazole methanesulfonate]",850 ± 610,8.71 ± 3.74,1.76 ± 1.17,820 ± 10,110 ± 10,8660 ± 200,3680 ± 220,6640 ± 530,236 to 240,–,–,–,–,1.8,–,–
"COc1ccc(-n2cc(-c3nc4ccc(C5=NCCCN5)cc4s3)nn2)cc1.CS(=O)(=O)O [15c, 6-(3,4,5,6-Tetrahydropyrimidin-1-ium-2-yl)-2-[1-(4-methoxyphenyl)-1H-1,2,3-triazole-4-yl]benzothiazole methanesulfonate]",4070 ± 1060,4.74 ± 0.14,4.28 ± 0.06,4300 ± 410,1330 ± 170,–,–,–,261 to 265,–,–,–,–,–,–,–
"CS(=O)(=O)O.c1ccc(Cn2cc(-c3nc4ccc(C5=NCCCN5)cc4s3)nn2)cc1 [15d, 6-(3,4,5,6-Tetrahydropyrimidin-1-ium-2-yl)-2-(1-benzyl-1H-1,2,3-triazole-4-yl)benzothiazole methanesulfonate]",31900 ± 8380,49.9 ± 12.5,40.6 ± 10.6,31000 ± 4500,18900 ± 190,–,–,–,170 to 174,–,–,–,–,–,–,–
